Data set [1] in a line: Permeability assay, everted rat gut model. The settings on record: for Papp at 120 min, 100 μM: male, Wistar, rat, everted rat gut, 37 °C, A-B. Type of data set: in vitro ADME, Wistar rats. The procedure: Male Wistar rats weighing 200–250 g were used in this research. Everted intestinal sacs were prepared by quickly removing the small intestine from starved rats killed under ether anesthesia. All experiments were carried out after pre-incubation at 37 ± 0.5 °C, with the duodenum and jejunum then excised, flushed-through several times with saline solution at room temperature, and placed immediately into simulated intestinal fluid (SIF). The intestine was gently everted over a steel rod and filled with fresh SIF. The sacs were preincubated in oxygenated buffer solution for 5 min and then placed in 100 mL of oxygenated SIF solution containing 0.0001 M (100 μM) of Compound 1 at 37 °C. Oxygen was bubbled with a pump to maintain viable tissue.
The everted intestinal sac was filled with 1.5 mL of SIF solution, while a test compound solution (0.0001 M) remained external to the everted sac. […] 300 μL samples were collected from inside the sac with a metallic cannula at 5, 10, 15, 30, 45, 60, 90, and 120 min (apical-basolateral transport A-B), after which a medium replacement was made. Both an initial and final sample of the outside solution were analyzed by HPLC.
The apparent intestinal permeability (Papp) was calculated according to Equation (2): (2) Papp=V/(A∗Co)dC/dt where Papp = Apparent Permeability (cm/s), V = Intestinal Volume (mL), A = Surface Area (cm^2), dC/dt = Concentration Gradient, and, Co = Initial Concentration (μg/mL).

Data set [2] can be described thus: pKa determination via potentiometric analysis. The data set is classed as physicochemical. The settings on record: methanol/aqueous solution of ionic strength 0.02 M; Mean (±S.D.), potentiometric titration, triplicate; read-out: pKa1. The procedure: The determination of pKa was undertaken as described by Babic A. et al.. Compound 1 was prepared by weighing 0.001 equivalents, which were dissolved in the minimum volume of methanol, to which aqueous solution with an ionic strength of 0.02 M was added to obtain a final concentration for Compound 1 of 0.006 M. It was titrated with NaOH 0.01 N, which had been previously evaluated with an ionic strength of 0.02 M using Logger Pro 3.5.0 software (Vernier Software & Technology, Beaverton, OR, USA). The study was conducted in triplicate, determining the final points using the criteria from the first and second derivative test.

Data set [3] is described as follows: Apparent partition coefficient (octanol-water log D, shake-flask). The data set is classed as physicochemical. The note with it: n-octanol/phosphate buffer. The procedure: The octanol-water distribution coefficient was determined using the shake-flask method. The two phases were mutually saturated by shaking for 15 min. Phosphate buffers were used as the aqueous phase for the pH range 1.2 to 13. 5 mL portions of different buffer solutions (pH 1.2 to 13) containing 100 μg/mL of Compound 1 were mixed with 2.5 mL of n-Octanol. The mixture was shaken for 30 min, centrifuged at 8000× g for 10 min, after which the aqueous and organic phases were separated. Aqueous samples were analyzed at 222 nm using a validated spectrophotometric method (5–200 μg·mL^−1). The distribution coefficient (log D) was calculated according to Equation (1) for each pH value: (1) Log D=log[Compound]org/[Compound ]aq where [Compound]org is the drug concentration in the organic phase (determined by mass balance) and [Compound]aq is the drug concentration in the aqueous phase for each buffer solution. Every experiment was evaluated in triplicate.

Data set [4] is described as follows: Bioavailability / pharmacokinetic study, oral and intravenous administration. Type of data set: in vivo, Wistar rats. Set-up: average clearance (CL): unit not given here. The settings on record: for half-life: read-out: T1/2el (converted). The procedure:
Male Wistar rats weighing 250–300 g were used for pharmacokinetic evaluation. Animals were individually identified by tail markings and acclimated to the study environment for seven days prior to the administration of the dose. Animals were kept on a 12 h light/dark cycle except when this was interrupted for study procedures. Animals were kept at average room temperature, which was regulated in the range of 18 to 29 °C. The animals were fasted prior to dose administration, and had access to water ad libitum.
Rats were anesthetized with ether and cannulated via the caudal vein using polyethylene tubing with an internal diameter of 0.023 inches, and an outer diameter of 0.038 inches (Becton Dickinson Clay Adams).
Compound 1 was prepared with Cremophore (10%) in physiologic saline solution and administered orally in a 50 mg/kg dose, and via intravenous bolus (50 mg/kg). Study was conducted in quintuplicate.
After dosing, serial blood samples were collected (0.2 mL) 0, 0.083, 0.16, 0.25, 0.33, 0.50, 0.75, 1.0, 1.5, 2.0, 3.0, 4.0, 6.0, and 8 h after both oral and intravenous administration using heparinized (20 UI) tubes, and were centrifuged at 5000× g for 10 min, with the plasma harvested and analyzed by HPLC using the previously validated method.
The pharmacokinetic parameters of Compound 1 were obtained via non-compartmental analysis using PK software (PKSolver). The STATA statistical program, version 12, was used for the comparison of the following: the pharmacokinetic parameters obtained via both administration pathways (Cmax and Tmax); the elimination rate constant (kel); the biological half-life; the area under the curve (AUC0–t); the area under the curve from zero to infinity (AUC0–∞); volume of distribution (Vd); clearance (Cl); and, absolute bioavailability (F).

The test system of data set [5] is 11β-hydroxysteroid dehydrogenase type 1 (11β-HSD1). Set-up: method as in PMID 23597793. The note with it: at 10 μM, HEK293 cells; cited from earlier work.
Another data set relates to plasma glucose levels. Set-up: method as in PMID 23597793, PMID 23453304. The settings on record: non-insulin dependent diabetes mellitus rat model, 7 h post-administration, Compound 1 at 50 mg/kg single dose; cited from earlier work.
The conditions of data set [6]: reported in the rat, oral; cited from earlier work.
The next data set concerns rat. The settings on record: in vivo, po; cited from earlier work.
Setting [7] is: duodenum, read-out: Papp Duodenum.
The mark [8] stands for this setting: jejunum, read-out: Papp Jejunum.
[9] abbreviates: Compound 1, intravenous, 50 mg/kg, Wistar rat, mean.
Where [10] appears, read: Compound 1, oral, 50 mg/kg, Wistar rat, mean.
Where [11] appears, read: male, plasma, Compound 1, intravenous, 50 mg/kg, Wistar rat, mean.
Setting [12] is: male, plasma, Compound 1, oral, 50 mg/kg, Wistar rat, mean.

The text below walks through data of paper PMC6155746 (Molecules : A Journal of Synthetic Chemistry and Natural …, 2017).

Several values for one entry are separate records, joined by “and”; a condition that tells them apart may be missing. Equal entries are not always repeated. Where two headings read alike, the source gives them in different places.

As a reminder, the Papp is the rate of passage across a membrane or cell layer, normalised by area and donor concentration. Consider `CC1(C)S[C@@H]2[C@H](NC(=O)[C@H](N)c3ccc(O)cc3)C(=O)N2[C@H]1C(=O)O` [Amoxicillin, amoxicillin, reference compound], for which the values for the Papp at 120 min, 100 μM in data set [1] (setting [7]) and in data set [1] (setting [8]) were 8.52 ×10⁻⁶ cm/s and 10 ×10⁻⁶ cm/s, respectively.

The bioavailability is dose-corrected exposure relative to a reference, in per cent. Broadly, the Cmax is the maximum level reached in the sampled fluid or tissue. By Tmax is commonly meant the time from dosing to the highest level. Regarding `CC(C)(Oc1ccc(Cl)cc1)C(=O)Nc1nnn[nH]1` [Compound 1, 2-(4-chlorophenoxy)-2-methyl-N-(1H-tetrazol-5-yl) propanamide], the pKa in data set [2] was 4.43. Further, the “log D” value in data set [3] (pH 1 to 5) is listed as “positive”. Besides, in data set [3] (pH 7), the “Log D” value is reported as “below zero”. Further, in data set [1] (compared to the standards naproxen and amoxicillin), the permeability classification result is reported as “low permeability”. Also, in data set [1] (setting [7]), the Papp at 120 min, 100 μM is 8.73 ×10⁻⁶ cm/s. Further, in data set [1] (setting [8]), the apparent permeability (Papp) at 120 min, 100 μM stood at 16.2 ×10⁻⁶ cm/s. In data set [4] (Compound 1, intravenous), the average ABC0–α came to 38800 ng·h/mL. In data set [4] (setting [9]), the “ABC0–t” value is on record as 30.5 μg/mL·h, the “ABC0–α” value is recorded as 38.8 μg/mL·h and the Cl is on record as 484.5 mL/h. In data set [4] (Compound 1, oral), the average ABC0–α was determined as 2580 ng·h/mL and the “average clearance (CL)” value stood at 751.2. In data set [4] (setting [10]), the “ABC0–t” value worked out at 2.37 μg/mL·h, the “ABC0–α” value is recorded as 2.58 μg/mL·h, the Cl turned out to be 751.2 mL/h and the Ka came to 3.05 h⁻¹. In data set [4] (male, Wistar, rat, plasma, 50 mg/kg, Compound 1, intravenous, read-out: average clearance (CL) (converted)), the clearance is 8.07 mL/min. Further, the half-life in data set [4] (male, Wistar, rat, plasma, iv, 50 mg/kg, Compound 1, intravenous, 50 mg/kg, Wistar rat, mean) is 42.6 min. Also, the half-life in data set [4] (male, Wistar, rat, plasma, po, 50 mg/kg, Compound 1, oral, 50 mg/kg, Wistar rat, mean) is ~22.8 min. For the same molecule, in data set [4] (setting [11]), the Vd was 0.4 L and 1.3 L/kg; the k el was 0.000336 s⁻¹. The molecule also displayed a bioavailability in data set [4] (male, plasma, Compound 1, oral vs intravenous, 50 mg/kg, Wistar rat, mean) of 10.4%. In data set [4] (setting [12]), the highest concentration (Cmax) stood at 3570 ng/mL, the Tmax amounted to 19.8 min and the k el is 0.000503 s⁻¹. Besides, in data set [5], the “inhibition of 11β-HSD1” value is listed as 51.17%. For the same molecule, in the data set with plasma glucose levels, the “reduction in glucose levels in the plasma” value was “up to 77%”.

In the case of `CC(C)(Oc1ccc(Cl)cc1)C(=O)O` [Compound 2, Clofibric acid], the “average lifetime (half-life) of clofibric acid” value in data set [6] is 420 to 480 min. In addition, the DL50 in the data set on rat is reported as 940 mg/kg.

On to `COc1ccc(Cl)cc1C(=O)NCCc1ccc(S(=O)(=O)NC(=O)NC2CCCCC2)cc1` [glibenclamide, reference compound], for which, in the data set with plasma glucose levels, the “reduction in glucose levels in the plasma” value is 40%.
